One experiment deals with Trichomonas vaginalis. In words: In vitro activity against T. vaginalis (IC50 determination). In kind it is cell-based. As to conditions: 37° C., aerobic, Modified Diamonds Medium. How it is done: The antiprotozoal e.g. antitrichomonal, activity of the compounds of the present invention may be assessed by conventional methods, for example by determining the minimum inhibition concentration (m.i.c.) or 50% inhibition level (IC50).
Modified Diamonds Medium (MDM) was prepared according to the method described in J. Kulda et al., American Journal of Obstetrics and Gynaecology 1970, 108, 908-18 and 4 cm^3 of the medium was pipetted into each of a series of tubes (usually 16 tubes). To each tube was added 0.5 cm^3 of varying concentration of a solution (usually in ethanol+MDM) or suspension of the test drug. Duplicate tubes for each drug concentration were prepared.
Finally, to each tube was added T. vaginalis (0.5 cm^3) at a concentration of 1×10^5 cm^-3,) to give a final trichomonad concentration of 1×10^4 cm^-3 in each tube. The tubes were then incubated (aerobically) at 37° C. and the resulting trichomonad numbers were counted at 24 and 48 hours using a haemacytometer.
This information was then used to determine the 50% inhibition concentration (IC50).

The next experiment deals with Candida albicans. The experiment can be described thus: In vitro activity against Candida albicans (minimum inhibition concentration). In kind it is cell-based. Conditions: Yeast Nitrogen Base (YNB) broth; salt form given per compound. The procedure: The antifungal activity of the compounds of the present invention may be evaluated by determining the minimum fungistatic (inhibition) concentration (m.i.c.). This test is usually performed by preparing a series of plates or tubes containing a suitable nutrient medium, each plate or tube also containing a different concentration of the test compound and then inoculating the medium with the fungal species. After an incubation period the plates are examined visually for the presence or absence of fungal growth. The m.i.c. is the minimum concentration required to prevent fungal growth.
Minimum Inhibition Concentrations (MICs) of compounds of the present invention vs. C. albicans were determined.
The solution was filter sterilised with a 0.45 μm membrane filter unit and was then further diluted with sterile distilled water (SDW)-YNB solution: SDW (1:5).

Setting [1] is: 24 hr, 1×10^4 trichomonads cm^-3, read-out: IC50 24 hr.
Where [2] appears, read: 48 hr, 1×10^4 trichomonads cm^-3, read-out: IC50 48 hr.

In brackets after ≈: the same amount, converted by molar mass. Read-outs that look alike come from different tables or passages of the source.

With `CCCCOc1ccc2c(c1)CCN=C2/C=C/C1CCCCC1` [Example 1, (E)-6-Butyloxy-1-(2-cyclohexylvinyl)-3,4-dihydroisoquinoline], the results for the IC50 with Trichomonas vaginalis (setting [1]) and in the experiment with Trichomonas vaginalis (setting [2]) were 1.3 µg/mL (≈ 4.17 µM) and 1.8 µg/mL (≈ 5.78 µM), respectively. For the same compound, the MIC (commonly the lowest concentration found to suppress growth) in the experiment with Candida albicans is 1.6 µg/mL.
For the compound `C(=CC1CCCCC1)C1=NCCc2cc(OCc3ccccc3)ccc21` [Example 2, 6-Benzyloxy-1-[2-cyclohexylvinyl]-3,4-dihydroisoquinoline], the figures for the IC50 with Trichomonas vaginalis (setting [1]) and in the experiment with Trichomonas vaginalis (setting [2]) were 1 µg/mL (≈ 2.89 µM) and 1.8 µg/mL (≈ 5.21 µM), respectively. Also, the minimal inhibitory concentration (MIC) in the experiment with Candida albicans came to 1.6 µg/mL.
Consider `CCCCOc1ccc2c(c1)CCN=C2C=Cc1ccccc1` [Example 3, 6-Butyloxy-3,4-dihydro-1-styrylisoquinoline], for which the figures for the IC50 with Trichomonas vaginalis (setting [1]) and in the experiment on Trichomonas vaginalis (setting [2]) were 3.7 µg/mL (≈ 12.1 µM) and 8.8 µg/mL (≈ 28.8 µM), respectively. In the experiment with Candida albicans, the MIC was 6.2 µg/mL.
For `CC(C)COc1ccc2c(c1)CCN=C2/C=C/C1CCCCC1` [Example 5, (E)-1-(2-Cyclohexylvinyl)-3,4-dihydro-6-(2-methylpropyloxy)isoquinoline] the same measures were 6.1 µg/mL (≈ 19.6 µM), 6.4 µg/mL (≈ 20.5 µM) and 6.2 µg/mL.
Consider `CCCOc1ccc2c(c1)CCN=C2/C=C/C1CCCCC1` [Example 6, (E)-1-(2-Cyclohexylvinyl)-3,4-dihydro-6-propyloxyisoquinoline], for which the concentration for half-maximal inhibition (IC50) with Trichomonas vaginalis (setting [1]) and in the experiment with Trichomonas vaginalis (setting [2]) was 0.4 µg/mL (≈ 1.34 µM) each time. Also, in the experiment with Candida albicans, the MIC came to 25 µg/mL.
`CCCCOc1ccc2c(c1)CCN=C2C=Cc1ccc(C#N)cc1` [Example 13, 6-Butyloxy-3,4-dihydro-1-(4-cyanostyryl)isoquinoline]: the IC50 (in general, the concentration needed to halve the response being measured) in the experiment on Trichomonas vaginalis (setting [1]) came out at 1.5 µg/mL (≈ 4.54 µM); in the experiment on Trichomonas vaginalis (setting [2]), 2.5 µg/mL (≈ 7.57 µM). In addition, the MIC in the experiment with Candida albicans was 6.2 µg/mL.
For `CCCCOc1ccc2c(c1)CCN=C2C=Cc1ccc(Cl)cc1` [Example 22, 6-Butyloxy-1-(4-chlorostyryl)-3,4-dihydroisoquinoline], the MIC in the experiment with Candida albicans stood at 3.1 µg/mL.
Regarding `CCCCOc1ccc2c(c1)CCN=C2/C=C/c1c(F)c(F)c(F)c(F)c1F` [Example 23, (E)-6-Butyloxy-1-(2-pentafluorophenyl)vinyl-3,4-dihydroisoquinoline], the results for the IC50 in the experiment with Trichomonas vaginalis (setting [1]) and in the experiment on Trichomonas vaginalis (setting [2]) were 1.1 µg/mL (≈ 2.78 µM) and 2.3 µg/mL (≈ 5.82 µM), respectively. In addition, the MIC in the experiment on Candida albicans worked out at 6.2 µg/mL.
Consider `CCCOc1ccc2c(c1)CCN=C2C=Cc1ccc(Cl)cc1Cl` [Example 31, 1-(2,4-Dichlorostyryl)-3,4-dihydro-6-propyloxyisoquinoline], for which the MIC in the experiment with Candida albicans came to 6.2 µg/mL.
Take `Clc1ccccc1C=CC1=NCCc2cc(OCC3CCCCC3)ccc21` [Example 39, 1-(2-Chlorostyryl)-6-cyclohexylmethoxy-3,4-dihydroisoquinoline]: in the experiment on Candida albicans, the MIC turned out to be 1.6 µg/mL.
Regarding `CC(C)CCOc1ccc2c(c1)CCN=C2C=Cc1ccc(Cl)cc1` [Example 50, 1-(4-Chlorostyryl)-3,4-dihydro-6-(3-methylbutyloxy)-isoquinoline], the MIC with Candida albicans worked out at 6.2 µg/mL.
Still for that read-out and setting: the figure for `Clc1ccc(C=CC2=NCCc3cc(OCc4ccccc4)ccc32)cc1` [Example 57, 6-Benzyloxy-1-(4-chlorostyryl)-3,4-dihydroisoquinoline] is 6.2 µg/mL; for `CCCCOc1ccc2c(c1)CCN=C2/C=C/c1ccsc1` [Example 107, (E)-6-Butyloxy-3,4-dihydro-1-(3-thienyl)vinylisoquinoline] it is 25 µg/mL.
Regarding `C/C=C/C=C/C1=NCCc2cc(OCCCCCC)ccc21` [Example 129, (E,E)-6-Hexyloxy-3,4-dihydro-1-(penta-1,3-dienyl)isoquinoline], the IC50 came to 2.9 µg/mL (≈ 9.75 µM) in the experiment with Trichomonas vaginalis (setting [1]) and 3.1 µg/mL (≈ 10.4 µM) in the experiment on Trichomonas vaginalis (setting [2]).
For `C/C=C/C=C/C1=NCCc2cc(OCc3ccccc3)ccc21` [Example 130, (E,E)-6-Benzyloxy-3,4-dihydro-1-(penta-1,3-dienyl)isoquinoline] the same measures were 3.6 µg/mL (≈ 11.9 µM) and 5.4 µg/mL (≈ 17.8 µM).
Consider `CCCCOc1ccc2c(c1)CCN=C2/C=C/c1cccc2ccccc12` [Example 135, (E)-6-Butyloxy-3,4-dihydro-1-[2-(1-naphthyl)vinyl]isoquinoline], for which the IC50 came out at 1.3 µg/mL (≈ 3.66 µM) in the experiment on Trichomonas vaginalis (setting [1]) and 1.6 µg/mL (≈ 4.5 µM) in the experiment with Trichomonas vaginalis (setting [2]).
With `CC=CC1=NCCc2cc(OCCC)ccc21` [Example 137, 3,4-Dihydro-1-prop-1-enyl-6-propyloxyisoquinoline], the IC50 in the experiment on Trichomonas vaginalis (setting [1]) was determined as 1 µg/mL (≈ 4.36 µM); in the experiment with Trichomonas vaginalis (setting [2]), 1.7 µg/mL (≈ 7.41 µM).
`CCCCOc1ccc2c(c1)CCN=C2C=Cc1ccc(C)s1` [Example 144, 6-Butyloxy-3,4-dihydro-1-(2-(5-methyl-2-thienyl)vinyl)isoquinoline]: the MIC in the experiment on Candida albicans was 1.6 µg/mL.
Take `CCCCOc1ccc2c(c1)CCN=C2/C(Br)=C/c1ccccc1` [Example 147, (Z)-6-Butyloxy-1-(1-bromo-2-phenylvinyl)-3,4-dihydroisoquinoline]: the figures for the IC50 in the experiment with Trichomonas vaginalis (setting [1]) and in the experiment on Trichomonas vaginalis (setting [2]) were 0.2 µg/mL (≈ 0.52 µM) and 0.3 µg/mL (≈ 0.781 µM), respectively.
On to `CCCCOc1ccc2c(c1)CCN=C2/C(Cl)=C/c1ccccc1` [Example 150], for which the IC50 in the experiment with Trichomonas vaginalis (setting [1]) and with Trichomonas vaginalis (setting [2]) was 0.2 µg/mL (≈ 0.588 µM) each time.
As to `Cl/C(=C\c1ccccc1)C1=NCCc2cc(OCc3ccccc3)ccc21` [Example 151, (Z)-6-Benzyloxy-1-(1-chloro-2-phenylvinyl)-3,4-dihydroisoquinoline], the IC50 in the experiment with Trichomonas vaginalis (setting [1]) and in the experiment on Trichomonas vaginalis (setting [2]) was 0.3 µg/mL (≈ 0.802 µM) in each case.
In the case of `CCCCOc1ccc2c(c1)CCN=C2/C(C)=C/c1ccccc1` [Example 153, (E)-6-Butyloxy-3,4-dihydro-1-(2-phenyl-1-methylvinyl)isoquinoline], the IC50 stood at 0.3 µg/mL (≈ 0.939 µM) in the experiment on Trichomonas vaginalis (setting [1]) and 0.5 µg/mL (≈ 1.57 µM) in the experiment on Trichomonas vaginalis (setting [2]).
Take `CCCOc1cc2c(cc1OCCC)C(C=Cc1ccc(Cl)cc1Cl)=NCC2` [Example 155, 1-(2,4-Dichlorostyryl)-3,4-dihydro-6,7-dipropyloxyisoquinoline]: the IC50 with Trichomonas vaginalis (setting [1]) amounted to 1.2 µg/mL (≈ 2.87 µM); in the experiment with Trichomonas vaginalis (setting [2]), 2.2 µg/mL (≈ 5.26 µM).
Consider `CCCCOc1cc2c(cc1OCCCC)C(C=Cc1ccc(Cl)cc1)=NCC2` [Example 157, 6,7-Dibutyloxy-1-(4-chlorostyryl)-3,4-dihydroisoquinoline], for which the 50% inhibitory concentration (IC50) in the experiment with Trichomonas vaginalis (setting [1]) turned out to be 1.8 µg/mL (≈ 4.37 µM); with Trichomonas vaginalis (setting [2]), 2.1 µg/mL (≈ 5.1 µM).
Taken in the same sequence, the figures for `CCCOc1cc2c(cc1OCCC)C(C=Cc1ccc(Cl)cc1Cl)=NC(C)C2` (stereo not shown) [Example 158, 1-(2,4-Dichlorostyryl)-3,4-dihydro-3-methyl-6,7-dipropyloxyisoquinoline] were 0.8 µg/mL (≈ 1.85 µM) and 1.1 µg/mL (≈ 2.54 µM).
Taken in the same sequence, the figures for `CCCCOc1cc2c(cc1OCC)C(C=Cc1ccc(Cl)cc1Cl)=NCC2` [Example 160, 6-Butyloxy-1-(2,4-dichlorostyryl)-7-ethoxy-3,4-dihydroisoquinoline] were 0.6 µg/mL (≈ 1.43 µM) and 1 µg/mL (≈ 2.39 µM).
Consider `CCCCOc1cc2c(cc1OCC)CCN=C2C=Cc1ccc(Cl)cc1Cl` [Example 161, 7-Butyloxy-1-(2,4-dichlorostyryl)-6-ethoxy-3,4-dihydroisoquinoline], for which the IC50 came out at 0.7 µg/mL (≈ 1.67 µM) with Trichomonas vaginalis (setting [1]) and 1.4 µg/mL (≈ 3.35 µM) in the experiment with Trichomonas vaginalis (setting [2]).
On to `CCCCCCOc1cc2c(cc1OCCCCCC)C(C=Cc1ccc(Cl)cc1)=NCC2` [Example 165, 1-(4-Chlorostyryl)-6,7-dihexyloxy-3,4-dihydroisoquinoline], for which the values for the IC50 with Trichomonas vaginalis (setting [1]) and with Trichomonas vaginalis (setting [2]) were 9 µg/mL (≈ 19.2 µM) and 10 µg/mL (≈ 21.4 µM), respectively.
Taken in the same sequence, the figures for `Clc1ccc(C=CC2=NCCc3cc(OCc4ccccc4)c(OCc4ccccc4)cc32)c(Cl)c1` [Example 170, 6,7-Bisbenzyloxy-1-(2,4-dichlorostyryl)-3,4-dihydroisoquinoline] were 1 µg/mL (≈ 1.94 µM) and 3.2 µg/mL (≈ 6.22 µM).
As to `C(=Cc1ccccc1)C1=NCCc2c1ccc(OCc1ccccc1)c2OCc1ccccc1` [Example 171, 5,6-Bis(benzyloxy)-3,4-dihydro-1-styrylisoquinoline], the IC50 with Trichomonas vaginalis (setting [1]) was determined as 0.8 µg/mL (≈ 1.8 µM); with Trichomonas vaginalis (setting [2]), 1.8 µg/mL (≈ 4.04 µM).
Turning to `Clc1ccc(C=CC2=NCCc3c2ccc(OCc2ccccc2)c3OCc2ccccc2)cc1` [Example 172, 5,6-Bis(benzyloxy)-1-(4-chlorostyryl)-3,4-dihydroisoquinoline], the IC50 was 0.7 µg/mL (≈ 1.46 µM) in the experiment with Trichomonas vaginalis (setting [1]) and 2 µg/mL (≈ 4.17 µM) with Trichomonas vaginalis (setting [2]).
For the compound `COc1ccc(OCc2ccccc2)c2c1C(C=Cc1ccccc1)=NCC2` [Example 174, 5-Benzyloxy-3,4-dihydro-8-methoxy-1-styryl-isoquinoline], the IC50 is 1.4 µg/mL (≈ 3.79 µM) in the experiment on Trichomonas vaginalis (setting [1]) and 2 µg/mL (≈ 5.41 µM) with Trichomonas vaginalis (setting [2]).
On to `COc1ccc(OCc2ccccc2)c2c1C(C=Cc1ccc(C#N)cc1)=NCC2` [Example 175, 5-Benzyloxy-1-(4-cyanostyryl)-3,4-dihydro-8-methoxyisoquinoline], for which the half-maximal inhibitory concentration (IC50) in the experiment with Trichomonas vaginalis (setting [1]) came out at 0.4 µg/mL (≈ 1.01 µM); in the experiment with Trichomonas vaginalis (setting [2]) it was 1 µg/mL (≈ 2.54 µM).
In the case of `CCCc1c2c(cc(OC)c1OCc1ccccc1)C(C=Cc1ccc(Cl)cc1)=NCC2` [Example 176, 6-Benzyloxy-1-(4-chlorostyryl)-3,4-dihydro-7-methoxy-5-propylisoquinoline], the IC50 in the experiment with Trichomonas vaginalis (setting [1]) was 1.7 µg/mL (≈ 3.81 µM); in the experiment with Trichomonas vaginalis (setting [2]), 3.1 µg/mL (≈ 6.95 µM).
As to `CCCc1c(O)c(OC)cc2c1CCN=C2C=Cc1ccccc1Cl` [Example 180, 1-(2-Chlorostyryl)-3,4-dihydro-6-hydroxy-7-methoxy-5-propylisoquinoline], the IC50 in the experiment with Trichomonas vaginalis (setting [1]) was 1 µg/mL (≈ 2.81 µM); with Trichomonas vaginalis (setting [2]), 1.6 µg/mL (≈ 4.5 µM).

For the origin of these results see patent publication US4968698A, “Nitrogen containing heterocyclic compounds” (Burroughs Wellcome Co., priority 1984, dated 1990).
